Patent publication US11053253B2, “Macrocyclic compounds for treatment of medical disorders” (Achillion Pharmaceuticals, Inc., priority 2017, dated 2021)

target: Human Factor D (Homo sapiens (Human), UniProt P00746); test: Human Factor D Assay; assay type: biochemical; settings: Human Factor D 80 nM, substrate Z-L-Lys-SBzl, DTNB, A405; read-out: IC50 (Stars)
Method: Example 2. Human Factor D Assay
Human Factor D (purified from human serum, Complement Technology, Inc.) at 80 nM final concentration is incubated with test compound at various concentrations for 5 min at room temperature in 50 mM Tris, 1M NaCl, pH 7.5. A synthetic substrate Z-L-Lys-SBzl and DTNB (Ellman's reagent) are added to final concentrations of 100 µM each. Absorbance at 405 nm (A405) is recorded at 30 second intervals for 30 minutes using a microplate spectrophotometer. IC50 values are calculated by nonlinear regression of Complement Factor D reaction rates as a function of test compound concentration.

Chain of Human Factor D (P00746 26-253): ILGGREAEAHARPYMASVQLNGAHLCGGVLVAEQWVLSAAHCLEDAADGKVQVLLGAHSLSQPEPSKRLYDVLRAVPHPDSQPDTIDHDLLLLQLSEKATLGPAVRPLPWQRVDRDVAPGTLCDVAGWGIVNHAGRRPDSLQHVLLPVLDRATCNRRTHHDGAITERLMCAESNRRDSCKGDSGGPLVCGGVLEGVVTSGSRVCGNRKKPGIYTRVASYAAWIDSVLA

SMILES	IC50
CC(=O)c1nn(CC(=O)N2[C@H]3C[C@]4(C[C@@H]24)Cn2cc(nn2)COCc2ccc(Br)nc2NC3=O)c2cnccc12 [Compound T-27, (31R,33S,35R,Z)-32-(2-(3-acetyl-1H-pyrazolo[3,4-c]pyridin-1-yl)acetyl)-66-bromo-11H-8-oxa-32,5-diaza-6(2,3)-pyridina-1(1,4)-triazola-3(5,3)-bicyclo[3.1.0]hexanacyclononaphan-4-one]	< 1 µM
CC(=O)c1nn2c3c(cc(-c4cnc(C)nc4)cc13)CCCCCCC=CCc1ccc(Br)nc1NC(=O)[C@@H]1C[C@@]3(C)C[C@H]3N1C(=O)C2 [Compound T-37]	< 1 µM
CC(=O)c1nn(CC(=O)N2[C@H]3C[C@@]4(COCCCCCc5ccc(Br)nc5NC3=O)C[C@@H]24)c2ccc(-c3cnc(C)nc3)cc12 [Compound T-38]	< 1 µM
CC(=O)c1nn(CC(=O)N2[C@H]3C[C@@]4(COCCCCCCc5ccc(Br)nc5NC3=O)C[C@@H]24)c2ccc(-c3cnc(C)nc3)cc12 [Compound T-39]	< 1 µM
CC(=O)c1nn(CC(=O)N2[C@H]3C[C@@]4(COCCCCCCCc5ccc(Br)nc5NC3=O)C[C@@H]24)c2ccc(-c3cnc(C)nc3)cc12 [Compound T-40]	< 1 µM
CC(=O)c1nn(CC(=O)N2[C@H]3C[C@@]4(COCCCCCCCc5ccc(Br)nc5NC3=O)C[C@@H]24)c2cnc(-c3cnc(C)nc3)cc12 [Compound T-41]	< 1 µM
CC(=O)c1nn(CC(=O)N2[C@H]3C[C@@]4(COCCCCCCc5ccc(Br)nc5NC3=O)C[C@@H]24)c2cnc(-c3cnc(C)nc3)cc12 [Compound T-42]	< 1 µM
CC(=O)c1nn(CC(=O)N2[C@H]3C[C@@]4(C=CCCCCCCc5ccc(Br)nc5NC3=O)C[C@@H]24)c2cnc(-c3cnc(C)nc3)cc12 [Compound T-43]	< 1 µM
CC(=O)c1nn(CC(=O)N2[C@H]3C[C@@]4(COC/C=C/COCc5ccc(Br)nc5NC3=O)C[C@@H]24)c2cnc(-c3cnc(C)nc3)cc12 [Compound T-44]	< 1 µM
CC(=O)c1nn(CC(=O)N2[C@H]3C[C@@]4(COC/C=C\COCc5ccc(Br)nc5NC3=O)C[C@@H]24)c2cnc(-c3cnc(C)nc3)cc12 [Compound T-45]	< 1 µM
CC(=O)c1nn(CC(=O)N2[C@H]3C[C@@]4(CCCCCCCCc5ccc(Br)nc5NC3=O)C[C@@H]24)c2cnc(-c3cnc(C)nc3)cc12 [Compound T-46]	< 1 µM
CC(=O)c1nn(CC(=O)N2[C@H]3C[C@@]4(C=CCCC5=NN=C(Cc6ccc(Br)nc6NC3=O)O5)C[C@@H]24)c2cnc(-c3cnc(C)nc3)cc12 [Compound T-47]	< 1 µM
CC(=O)c1nn(CC(=O)N2[C@H]3C[C@@]4(C=CCCCCCCc5ccc(Br)nc5NC3=O)C[C@@H]24)c2ccc(-c3cnc(C)nc3)cc12 [Compound T-48]	< 1 µM
CC(=O)c1nn2c3c(cc(-c4cnc(C)nc4)cc13)CCCCCCC=Cc1cn(nn1)C[C@@]13C[C@@H](C(=O)Nc4nc(Br)ccc4C)N(C(=O)C2)[C@@H]1C3 [Compound T-49]	< 1 µM
CC(=O)c1nn2c3c(cc(-c4cnc(C)nc4)cc13)C=CCCCCC(=O)NC[C@@]13C[C@@H](C(=O)Nc4nc(C(F)(F)F)ccc4C)N(C(=O)C2)[C@@H]1C3 [Compound T-51]	< 1 µM
CC(=O)c1nn2c3c(cc(-c4cnc(C)nc4)cc13)CCCCCCCCc1cn(nn1)C[C@@]13C[C@@H](C(=O)Nc4nc(Br)ccc4C)N(C(=O)C2)[C@@H]1C3 [Compound T-53]	< 1 µM
CC(=O)c1nn(CC(=O)N2[C@H]3C[C@]4(C[C@@H]24)CN(C)CCCCC=CCc2ccc(Br)nc2NC3=O)c2cnc(-c3cnc(C)nc3)cc12 [Compound T-56]	< 1 µM
CC(=O)c1nn(CC(=O)N2[C@H]3C[C@]4(C[C@@H]24)CN(C)CCCC=CCc2ccc(Br)nc2NC3=O)c2cnc(-c3cnc(C)nc3)cc12 [Compound T-57]	< 1 µM

SMILES	IC50
CC(=O)c1nn2c3c(cc(-c4cnc(C)nc4)cc13)C=CCCCCCN(C)C[C@@]13C[C@@H](C(=O)Nc4nc(Br)ccc4C)N(C(=O)C2)[C@@H]1C3 [Compound T-58]	< 1 µM
CC(=O)c1nn(CC(=O)N2[C@H]3C[C@@]4(C=CCCCCCN(C)Cc5ccc(Br)nc5NC3=O)C[C@@H]24)c2c(CF)cc(-c3cnc(C)nc3)cc12 [Compound T-59]	< 1 µM
CC(=O)c1nn(CC(=O)N2[C@H]3C[C@]4(C[C@@H]24)CN(C)CCCCC=CCc2ccc(Br)nc2NC3=O)c2c(C)cc(-c3cnc(C)nc3)cc12 [Compound T-60]	< 1 µM
CC(=O)c1nn(CC(=O)N2[C@H]3C[C@]4(C[C@@H]24)CN(C)CCCCC=CCc2ccc(Br)nc2NC3=O)c2c(CF)cc(-c3cnc(C)nc3)cc12 [Compound T-62]	< 1 µM
CC(=O)c1nn(CC(=O)N2[C@H]3C[C@]4(C[C@@H]24)CN(C)CCCCC=CCc2ccc(Br)nc2NC3=O)c2ccc(-c3cnc(C)nc3)cc12 [Compound T-64]	< 1 µM
CC(=O)c1nn(CC(=O)N2[C@H]3C[C@]4(C[C@@H]24)CN(C)CCCC=CCc2ccc(Br)nc2NC3=O)c2ccc(-c3cnc(C)nc3)cc12 [Compound T-65]	< 1 µM
C=C1COCc2ccc(Br)nc2NC(=O)[C@@H]2C[C@]3(C[C@H]3N2C(=O)Cn2nc(C(C)=O)c3cc(-c4cnc(C)nc4)ccc32)Cn2cc1cn2 [Compound T-66]	< 1 µM
CC(=O)c1nn(CC(=O)N2[C@H]3C[C@]4(C[C@@H]24)Cn2ccc(n2)/C=C\COCc2ccc(Br)nc2NC3=O)c2ccc(-c3cnc(C)nc3)cc12 [Compound T-69]	< 1 µM
CC(=O)c1nn(CC(=O)N2[C@H]3C[C@]4(C[C@@H]24)Cn2ccc(n2)/C=C\COCc2ccc(Br)nc2NC3=O)c2cnc(-c3cnc(C)nc3)cc12 [Compound T-70]	< 1 µM
CC(=O)c1nn(CC(=O)N2[C@H]3C[C@]4(C[C@@H]24)CN(C)CCCCCCCc2ccc(Br)nc2NC3=O)c2c(C)cc(-c3cnc(C)nc3)cc12 [Compound T-71]	< 1 µM
CC(=O)c1nn(CC(=O)N2[C@H]3C[C@]4(C[C@@H]24)CN(C)CCCCCCc2ccc(Br)nc2NC3=O)c2c(C)cc(-c3cnc(C)nc3)cc12 [Compound T-72]	< 1 µM
Cc1ncc(-c2cc(CF)c3c(c2)c(C=O)nn3CC(=O)N2[C@H]3C[C@]4(C[C@@H]24)CN(C)CCCCCCCc2ccc(Br)nc2NC3=O)cn1 [Compound T-74]	< 1 µM
CC(=O)c1nn(CC(=O)N2[C@H]3C[C@]4(C[C@@H]24)CN(C)CCCCCCCc2ccc(Br)nc2NC3=O)c2cnc(-c3cnc(C)nc3)cc12 [Compound T-75]	< 1 µM
CC(=O)c1nn(CC(=O)N2[C@H]3C[C@]4(C[C@@H]24)CN(C)CCCCCCc2ccc(Br)nc2NC3=O)c2cnc(-c3cnc(C)nc3)cc12 [Compound T-76]	< 1 µM
CC(=O)c1nn(CC(=O)N2[C@H]3C[C@@]4(COCC=CCOCc5ccc(Br)nc5NC3=O)C[C@@H]24)c2c(CF)cc(-c3cnc(C)nc3)cc12 [Compound T-77]	< 1 µM
CC(=O)c1nn(CC(=O)N2[C@H]3C[C@@]4(COCCCCOCc5ccc(Br)nc5NC3=O)C[C@@H]24)c2c(CF)cc(-c3cnc(C)nc3)cc12 [Compound T-78]	< 1 µM
CC(=O)c1nn2c3cc(c(-c4cnc(C)nc4)cc13)OCCC/C=C/COC[C@@]13C[C@@H](C(=O)Nc4nc(Br)ccc4C)N(C(=O)C2)[C@@H]1C3 [Compound T-79]	< 1 µM
CC(=O)c1nn2c3cc(c(-c4cnc(C)nc4)cc13)OCCC/C=C\COC[C@@]13C[C@@H](C(=O)Nc4nc(Br)ccc4C)N(C(=O)C2)[C@@H]1C3 [Compound T-80]	< 1 µM
